Among the data in PMC8808171, “Nonselective TRPC channel inhibition and suppression of aminoglycoside-induced premature termination codon readthrough by the small molecule AC1903” (The Journal of Biological Chemistry, 2022) are IC50 and Hill slope values, retold here.

For orientation: IC50 means the concentration that gives 50% inhibition. A low value points to higher potency. By Hill slope is commonly meant a measure of the steepness of the concentration-response curve.

The target in this assay is T1, TRPC4:C4 (Homo sapiens, UniProt Q9UBN4).
T1 construct: expressed in transfected cells; host or cells: HEK T-REx (tetracycline-induced)
T1 sequence (Q9UBN4 1-893 isoform Q9UBN4-2): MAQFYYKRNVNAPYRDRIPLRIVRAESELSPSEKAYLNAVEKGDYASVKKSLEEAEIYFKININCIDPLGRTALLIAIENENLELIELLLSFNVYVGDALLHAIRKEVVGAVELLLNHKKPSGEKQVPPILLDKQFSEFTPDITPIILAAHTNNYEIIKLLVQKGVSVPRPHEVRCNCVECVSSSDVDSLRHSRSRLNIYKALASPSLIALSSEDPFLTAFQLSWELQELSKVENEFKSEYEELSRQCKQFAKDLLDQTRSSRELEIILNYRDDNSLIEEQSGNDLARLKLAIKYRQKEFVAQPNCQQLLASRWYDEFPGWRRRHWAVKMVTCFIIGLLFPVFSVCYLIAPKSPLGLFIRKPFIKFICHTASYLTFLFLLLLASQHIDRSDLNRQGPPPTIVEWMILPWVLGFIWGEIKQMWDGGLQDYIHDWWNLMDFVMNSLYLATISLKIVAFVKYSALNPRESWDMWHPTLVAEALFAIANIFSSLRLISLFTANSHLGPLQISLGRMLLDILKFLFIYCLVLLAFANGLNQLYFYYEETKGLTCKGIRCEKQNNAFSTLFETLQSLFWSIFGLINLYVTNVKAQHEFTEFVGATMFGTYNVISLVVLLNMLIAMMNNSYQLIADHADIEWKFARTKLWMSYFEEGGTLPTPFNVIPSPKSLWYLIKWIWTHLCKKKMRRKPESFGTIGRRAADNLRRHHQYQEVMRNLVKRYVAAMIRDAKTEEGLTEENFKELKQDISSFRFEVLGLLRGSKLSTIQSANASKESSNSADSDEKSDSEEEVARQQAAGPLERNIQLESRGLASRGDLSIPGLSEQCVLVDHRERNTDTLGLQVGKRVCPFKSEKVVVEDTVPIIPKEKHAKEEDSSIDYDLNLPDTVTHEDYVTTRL
Nature of the assay: [Ca2+]i recordings (Fura-2), TRPC4:C4 in HEK T-REx cells. The format is cell-based. As to conditions: for IC50: HEK T-REx. The method, then:
Based on the findings described above, we wondered whether AC1903—which is typically used as a TRPC5 inhibitor at concentrations of 30–100 μM in cellular assays ([29], [56])—might have limited selectivity for TRPC5 channels and whether its effect on intracellular G418 levels and PTC readthrough might be the consequence of inhibition of other or multiple targets. All well-characterized TRPC channel inhibitors reported to date modulate multiple TRP(C) channels ([34], [35], [36]). […] Because limited data for the selectivity of AC1903 are available in the public domain, we decided to profile AC1903 against a selection of calcium-permeable cation channels by intracellular calcium ([Ca^2+]i) recordings using well-characterized cell lines and TRP channel activators ([46], [57], [58]), and the Ca^2+ indicator Fura-2. In these assays, cells (HEK 293, HEK T-REx, or CHO) overexpressing the relevant ion channel protein and loaded with Fura-2 AM (a cell-permeable precursor of Fura-2) were preincubated with various concentrations of AC1903 or vehicle (DMSO) for 30 min. Then, changes in ratiometric fluorescence (from background) were recorded upon addition of the respective ion channel activator.
Figure 4 AC1903 inhibits multiple TRP channels.A and C, representative [Ca^2+]i measurements from a single 96-well plate (N = 6; mean ± SD over technical replicates) showing inhibition of EA-mediated [Ca^2+]i responses by 0.1 to 100 μM AC1903 in (Tet+) HEK T-REx cells expressing TRPC5 (A) or TRPC4 (C). B and D, concentration–response data for experiments in (A) and (C) (scatter plots showing normalized data for three independent experiments; n/N = 3/18). Responses were calculated at 250 to 295 s compared to [Ca^2+]i at baseline (0–55 s). E and G, representative [Ca^2+]i measurements from a single 96-well plate (N = 6; mean ± SD over technical replicates) showing inhibition of OAG-mediated [Ca^2+]i responses by 0.1 to 100 μM AC1903 in (Tet+) HEK T-REx cells expressing TRPC3 (E) and WT HEK 293 cells transiently expressing TRPC6 (G). F and H, concentration–response data for experiments in (E) and (G) (scatter plots showing normalized data for three independent experiments; n/N = 3/18). Responses were calculated at 90 to 110 s compared with [Ca^2+]i at baseline (0–55 s). I, representative [Ca^2+]i measurements from a single 96-well plate (N = 6; mean ± SD over technical replicates) showing inhibition of the 4α-PDD-mediated [Ca^2+]i response by 0.1 to 100 μM AC1903 in CHO cells stably expressing TRPV4. J, concentration–response data for experiments in (I) (scatter plot showing normalized data for three independent experiments; n/N = 3/18). Responses were calculated at 290 to 300 s compared with [Ca^2+]i baseline (0–55 s). EA, (-)-englerin A; TRPC, transient receptor potential canonical. […]

Consider `c1ccc(Cn2c(NCc3ccco3)nc3ccccc32)cc1` [AC1903], for which, for the setting “activator EA (30 nM)”, 2.1 µM corresponded to half-maximal inhibition (IC50) and the Hill slope is on record as -1.7. Also, under “activator S1P (10 μM)”, inhibition was half-maximal at 1.8 µM (IC50) and the Hill slope was -1.9.
